In brackets after ≈: the same amount, converted by molar mass.
Tests used:
[1] = tested on: Aspergillus fumigatus 7544; test: Broth microdilution MIC (CLSI M27-A3/M60); format: cell-based; details: MIC80 (≥80% growth inhibition), 30 °C, 48 h; for MIC: Aspergillus fumigatus, 7544, read-out: MIC, A. fum 7544
Description: (§1) According to the Clinical Laboratory Standards Institute (CLSI, M27-A3 and M60) protocols[10]^,[11], the target compounds were evaluated for their in vitro antifungal activity by the broth microdilution method. The fungi strains used in this study were obtained from the American Type Culture Collection (ATCC) and Changhai Hospital (Shanghai, China). […] Fluconazole (FCZ) and ketoconazole (KCZ) were used as positive controls.
(§2) All fungal strains used in this study were obtained from the American Type Culture Collection (ATCC) and Changhai Hospital (Shanghai, China). All strains were cultivated by shaking (200 rpm) at 30 °C in YEPD medium (1% yeast extract, 2% peptone, and 2% dextrose) to an exponential growth stage.
(§3) Fungal cells at the exponential growth stage were collected and resuspended in RPMI 1640 medium, then diluted to 1 × 10^3 cells/mL. The suspension of fungal cells was inoculated into 96-well plates. Antifungal compounds were serially added and diluted in a 2-fold series to a final concentration range of 64.0–0.125 µg/mL. RPMI 1640 medium with no fungal cells served as a blank control. The fungal suspensions containing DMSO and FCZ served as the negative control and the positive control, respectively. C. albicans, C. glabrata, C. parapsilosis, C. tropicalis, and C. auris cells were incubated at 30 °C for 24 h, C. neoformans and A. fumigatus cells were incubated at 30 °C for 48 h. The optical density (OD630) at 630 nm was measured by a spectrophotometer, which was used to calculate the MIC80 values of each compound.

Candida albicans SC5314 = test: Broth microdilution MIC (CLSI M27-A3/M60); format: cell-based; details: MIC80 (≥80% growth inhibition), 30 °C, 24 h; for MIC: Candida albicans, SC5314, read-out: MIC, C. alb SC5314
Description: as §1, §2, §3

Candida glabrata 537 = test: Broth microdilution MIC (CLSI M27-A3/M60); format: cell-based; details: MIC80 (≥80% growth inhibition), 30 °C, 24 h; for MIC: Nakaseomyces glabratus, 537, read-out: MIC, C. gla 537
Description: as §1, §2, §3

[2] = tested on: Candida parapsilosis 22-20; test: Broth microdilution MIC (CLSI M27-A3/M60); format: cell-based; details: Lodderomyces parapsilosis, 2220; MIC80 (≥80% growth inhibition), 30 °C, 24 h; read-out: MIC, C. par 22-20
Description: as §1, §2, §3

Candida tropicalis 8915 = test: Broth microdilution MIC (CLSI M27-A3/M60); format: cell-based; details: MIC80 (≥80% growth inhibition), 30 °C, 24 h; for MIC: Candida tropicalis, 8915, read-out: MIC, C. tro 8915
Description: as §1, §2, §3

[3] = tested on: Cryptococcus neoformans 22-21; test: Broth microdilution MIC (CLSI M27-A3/M60); format: cell-based; details: 2221, MIC80 (≥80% growth inhibition), 30 °C, 48 h, read-out: MIC, C. neo 22-21
Description: as §1, §2, §3

[4] = tested on: FCZ-resistant C. albicans 901; test: MIC against FCZ-resistant strains, microdilution; format: cell-based, Candida albicans; details: FCZ-resistant isolate, 30 °C, 24 h; for MIC: Candida albicans, read-out: MIC, C.alb 901
Source text: (§4) The alarming impact of drug resistance amongst Candida spp. is an emerging problem globally. Rising rates of azole-resistant Candida spp. are associated with an increase in treatment failures. Candida auris is characterised by a high level of multi-drug resistance. It has been reported in more than 45 countries and has caused serious hospital outbreaks with crude mortality rates as high as 72%[13]^,[14].
as §2
as §3, with “The fungal suspensions containing DMSO and FCZ served as the negative control and the positive control, respectively.” left out

C. auris 918 = test: MIC against FCZ-resistant strains, microdilution; format: cell-based, Candida auris; details: Candidozyma auris, FCZ-resistant isolate, 30 °C, 24 h
Source text: as §4, §2
as §3, with “The fungal suspensions containing DMSO and FCZ served as the negative control and the positive control, respectively.” left out

C. auris 919 = test: MIC against FCZ-resistant strains, microdilution; format: cell-based, Candida auris; details: Candidozyma auris, FCZ-resistant isolate, 30 °C, 24 h
Source text: as §4, §2
as §3, with “The fungal suspensions containing DMSO and FCZ served as the negative control and the positive control, respectively.” left out

C. albicans SC5314 = test: GC-MS analysis of sterol composition; format: cell-based, Candida albicans; details: 8 µg/mL, 8 h; for ergosterol content of the fungal cells (of total sterols): control 89.85%
Description: As the major fungal sterol, ergosterol accounted for 89.85% of the total sterols in the control group, zymosterol accounted for 8.80%, in addition to several other sterols. […] In contrast, the content of other sterols in the bypass pathway increased.
Overnight cultured C. albicans SC5314 fungal cells were collected and diluted to 5 × 10^6 cells/mL in YEPD medium. […] The fungal cells were cultured by shaking (200 rpm) at 30 °C. After incubation for 8 h, the fungal suspension was centrifuged (3000 rpm, 1 min), harvested and washed twice with distilled water carefully. The saponifying agent (6 ml of 15% NaOH resolved in 90% ethanol) was added to the precipitate. After 1 h of saponification at 80 °C, sterols were extracted with hexane (3 × 5 ml). The combined extracts were evaporated in a water bath and washed once with water. The residue was dried in a 60 °C water bath to obtain the total sterols. Finally, the total sterol was analysed by GC-MS and the structures of each sterol content were identified and compared with the National Institute of Standards and Technology (NIST) database.

in vitro = details: rabbit

SMILES	MIC [1] [µg/mL]	MIC (Candida albicans SC5314) [µg/mL]	MIC (Candida glabrata 537) [µg/mL]	MIC [2] [µg/mL]	MIC (Candida tropicalis 8915) [µg/mL]	MIC [3] [µg/mL]	MIC [4] [µg/mL]	MIC (C. auris 918) [µg/mL]	MIC (C. auris 919) [µg/mL]	further results
C[C@@H](NC(=O)CCc1ccccc1)[C@](O)(Cn1cncn1)c1ccc(F)cc1F [A1]	64 (≈ 160 µM)	≤ 0.125	≤ 0.125	0.5 (≈ 1.25 µM)	> 64	0.25 (≈ 0.624 µM)	1 (≈ 2.5 µM)	64 (≈ 160 µM)	32 (≈ 79.9 µM)	MIC, C. alb SC5314 (Candida albicans SC5314): ≤ 0.125 µg/mL; MIC, C. gla 537 (Candida glabrata 537): ≤ 0.125 µg/mL; MIC, C.alb 901 [4]: 1.0 µg/mL (≈ 2.5 µM); proportion of 14α-methylfecosterol (of total sterols) (C. albicans SC5314): 31.11%; proportion of eburicol (of total sterols) (C. albicans SC5314): 19.29%; proportion of lanosterol (of total sterols) (C. albicans SC5314): 23.42%; proportion of obtusifoliol (of total sterols) (C. albicans SC5314): 20.09%; ergosterol content of the fungal cells (of total sterols) (C. albicans SC5314): 5.44%; hemolysis at 1 h, 16 µg/mL (in vitro): 0.95%
C[C@@H](NC(=O)CCc1ccc(C(C)(C)C)cc1)[C@](O)(Cn1cncn1)c1ccc(F)cc1F [A9]	32 (≈ 70.1 µM)	≤ 0.125	≤ 0.125	0.25 (≈ 0.548 µM)	> 64	≤ 0.125	32 (≈ 70.1 µM)	> 64	32 (≈ 70.1 µM)	MIC, C. alb SC5314 (Candida albicans SC5314): ≤ 0.125 µg/mL; ergosterol content of the fungal cells (of total sterols) (C. albicans SC5314): 5.17%; hemolysis at 1 h, 16 µg/mL (in vitro): 0.78%
CC(=O)c1ccc(CCC(=O)N[C@H](C)[C@](O)(Cn2cncn2)c2ccc(F)cc2F)cc1 [A11]	> 64	2 (≈ 4.52 µM)	1 (≈ 2.26 µM)	4 (≈ 9.04 µM)	> 64	1 (≈ 2.26 µM)				
C[C@@H](NC(=O)CCc1ccc(F)c(F)c1)[C@](O)(Cn1cncn1)c1ccc(F)cc1F [A14]	64 (≈ 147 µM)	≤ 0.125	≤ 0.125	1 (≈ 2.29 µM)	64 (≈ 147 µM)	1 (≈ 2.29 µM)	4 (≈ 9.17 µM)	> 64	> 64	
C[C@@H](NC(=O)CCc1ccc(Cl)c(F)c1)[C@](O)(Cn1cncn1)c1ccc(F)cc1F [A15]	32 (≈ 70.7 µM)	≤ 0.125	≤ 0.125	0.5 (≈ 1.1 µM)	8 (≈ 17.7 µM)	0.5 (≈ 1.1 µM)	8 (≈ 17.7 µM)	64 (≈ 141 µM)	64 (≈ 141 µM)	
C[C@@H](NC(=O)CCc1ccc(Cl)c(Cl)c1)[C@](O)(Cn1cncn1)c1ccc(F)cc1F [A16]	64 (≈ 136 µM)	≤ 0.125	≤ 0.125	0.5 (≈ 1.07 µM)	8 (≈ 17 µM)	≤ 0.125	2 (≈ 4.26 µM)	> 64	> 64	
C[C@@H](NC(=O)CCc1cc(F)cc(F)c1)[C@](O)(Cn1cncn1)c1ccc(F)cc1F [A17]	32 (≈ 73.3 µM)	≤ 0.125	≤ 0.125	0.5 (≈ 1.15 µM)	16 (≈ 36.7 µM)	0.5 (≈ 1.15 µM)	4 (≈ 9.17 µM)	> 64	> 64	
C[C@@H]1[C@H](O)[C@@H](C)/C=C/C=C/C=C/C=C/C=C/C=C/C=C/[C@H](O[C@@H]2O[C@H](C)[C@@H](O)[C@H](N)[C@@H]2O)C[C@@H]2O[C@](O)(C[C@@H](O)C[C@@H](O)[C@H](O)CC[C@@H](O)C[C@@H](O)CC(=O)O[C@H]1C)C[C@H](O)[C@H]2C(=O)O [AmB, amphotericin B]										hemolysis at 1 h, 16 µg/mL (in vitro): 4.87%; hemolysis at 1 h, 32 µg/mL (in vitro): 57.7%; hemolysis at 1 h, 64 µg/mL (in vitro): 100%
OC(Cn1cncn1)(Cn1cncn1)c1ccc(F)cc1F [FCZ, fluconazole, reference compound]	> 64	0.5 (≈ 1.63 µM)	1 (≈ 3.27 µM)	4 (≈ 13.1 µM)	> 64	1 (≈ 3.27 µM)	> 256	> 256	> 256	MIC, A. fum 7544 [1]: > 64.0 µg/mL; MIC, C. tro 8915 (Candida tropicalis 8915): > 64.0 µg/mL; ergosterol content of the fungal cells (of total sterols) (C. albicans SC5314): 6.08%; hemolysis at 1 h, 16 µg/mL (in vitro): 1.3%
CC(=O)N1CCN(c2ccc(OCC3COC(Cn4ccnc4)(c4ccc(Cl)cc4Cl)O3)cc2)CC1 (stereo not shown) [KCZ, ketoconazole, reference compound]	4 (≈ 7.53 µM)	4 (≈ 7.53 µM)	1 (≈ 1.88 µM)	0.5 (≈ 0.941 µM)	16 (≈ 30.1 µM)	0.125 (≈ 0.235 µM)				

Second part, led by results:

MIC [1] [µg/mL]	MIC (Candida albicans SC5314) [µg/mL]	MIC (Candida glabrata 537) [µg/mL]	MIC [2] [µg/mL]	MIC (Candida tropicalis 8915) [µg/mL]	MIC [3] [µg/mL]	MIC [4] [µg/mL]	MIC (C. auris 918) [µg/mL]	MIC (C. auris 919) [µg/mL]	SMILES	further results
> 64	1 (≈ 2.41 µM)	1 (≈ 2.41 µM)	2 (≈ 4.81 µM)	> 64	2 (≈ 4.81 µM)				Cc1cccnc1CCC(=O)N[C@H](C)[C@](O)(Cn1cncn1)c1ccc(F)cc1F [A19]	
> 64	1 (≈ 2.41 µM)	2 (≈ 4.81 µM)	4 (≈ 9.63 µM)	> 64	4 (≈ 9.63 µM)				Cc1ccnc(CCC(=O)N[C@H](C)[C@](O)(Cn2cncn2)c2ccc(F)cc2F)c1 [A20]	
> 64	2 (≈ 4.81 µM)	2 (≈ 4.81 µM)	4 (≈ 9.63 µM)	> 64	4 (≈ 9.63 µM)				Cc1ccc(CCC(=O)N[C@H](C)[C@](O)(Cn2cncn2)c2ccc(F)cc2F)nc1 [A21]	
> 64	64 (≈ 154 µM)	1 (≈ 2.41 µM)	16 (≈ 38.5 µM)	> 64	8 (≈ 19.3 µM)				Cc1ccncc1CCC(=O)N[C@H](C)[C@](O)(Cn1cncn1)c1ccc(F)cc1F [A23]	
> 64	16 (≈ 38.5 µM)	4 (≈ 9.63 µM)	32 (≈ 77 µM)	> 64	32 (≈ 77 µM)				Cc1cncc(CCC(=O)N[C@H](C)[C@](O)(Cn2cncn2)c2ccc(F)cc2F)c1 [A24]	
> 64	16 (≈ 38.5 µM)	2 (≈ 4.81 µM)	64 (≈ 154 µM)	> 64	16 (≈ 38.5 µM)				Cc1ccc(CCC(=O)N[C@H](C)[C@](O)(Cn2cncn2)c2ccc(F)cc2F)cn1 [A25]	

— paper PMC10413920, “Design, synthesis and in vitro biological studies of novel triazoles with potent and broad-spectrum antifungal activity” (Journal of Enzyme Inhibition and Medicinal Chemistry, 2023)
